The values below come from patent US20240181007A1, “COMPOSITIONS AND METHODS FOR TREATING PULMONARY HYPERTENSION” (Acceleron Pharma Inc., priority 2021, published 2024).

Test [1] concerns Obese ZSF1-SU rats. Description: HFpEF induced PH rat model, obese ZSF1 rats challenged with semaxanib (Example 13). To be noted: 5 mpk s.c. twice weekly for 8 weeks from day 64 after semaxanib, relative to Obese ZSF1-SU/Veh. It is filed as in vivo. As for the experimental part: The effects of an ActRIIA-mFc fusion polypeptide (SEQ ID NO: 56) was examined in a rat model of left ventricular diastolic dysfunction (also referred to as HFpEF) group 2 (subgroup 2.2) pulmonary hypertension (PH). In this model, ZSF1-Lepr^faLepr^cp/Crl rats were challenged with semaxanib (SU5416) to induce HFpEF-PH.
Twenty ZSF1 Lepr^faLepr^cp/Crl male […] (8 wks old) and ten lean rats were subcutaneously administered with a single dose of semaxanib (100 mg/kg) at day 0, and ten lean rats were included as normal control. Eight weeks after semaxanib (SU5416) treatment, twenty ZSF1 Lepr^faLepr^cp/Crl rats were randomized into two groups: i) ten rats were injected subcutaneously with vehicle control (phosphate buffered saline (PBS)), twice weekly for 8 weeks starting from day 64 after semaxanib treatment, “Obese ZSF1 Veh”; and ii) ten rats were injected subcutaneously with ActRIIA-mFc at a dose of 5 mpk twice weekly for 8 weeks starting from day 64 after semaxanib treatment, “Obese ZSF1 ActRIIA-mFc.” At the end of the study, echocardiography and pressure-volume catheter were performed to measure left and right ventricular remodeling and functional changes before animals were euthanized for heart and lung collection.
Prior to euthanization, in vivo cardiac function was assessed by transthoracic echocardiography (Acuson P300, 18 MHz linear transducer: Siemens) in lightly anesthetized rats as described. Echocardiographic assessments were conducted at week 8 (before therapy with ActRIIA-mFc or vehicle) and week 15 (after therapy) in each rat. From left ventricle short axis view, M-mode echocardiogram was acquired to measure interventricular septal thickness at end diastole (IVSd), left ventricular posterior wall thickness at end diastole (LVPWd), left ventricular end diastolic diameter (LVEDD), and left ventricular end systolic diameter (LVESD). Left ventricular mass (LVM) was assessed by the equation: 1.05 [(LVEDD+LVPTD+IVSd)^3-LVEDD^3]. Early diastolic filling peak velocity (E), early diastolic mitral annular velocity (E′), and isovolumetric relaxation time (IVRT) were measured from the medial or septal wall at the mitral valve level from tissue Doppler image. LV diastolic function was assessed by measuring the E/E′ ratio and IVRT. Pulmonary arterial acceleration time (PAAT), a parameter of right ventricular function, was measured. Tricuspid annular plane systolic excursion (TAPSE), a parameter of global right ventricular function, was also measured. RV free wall thickness (RVFWT) was measured using M-mode in a modified parasternal long-axis view through the aortic valve. Pulmonary artery acceleration time (PAAT) was measured as the time from start to peak velocity of blood flow in the lumen of the main pulmonary artery distal to the pulmonary valve as obtained from the pulse-wave doppler recording.
Sixteen weeks after semaxanib treatment, rats were anesthetized with ketamine (100 mg/kg) and xylazine (5 mg/kg) at the end of the experiment to evaluate cardiac and pulmonary hemodynamics. The respiration was supported by a small animal ventilator. Thoracotomy was made through 4-5 intercostal space, and the heart was exposed. […] Ventricular pressure and volume were calculated with LabChart 7 software. […] After finishing left ventricular measurements, the catheter was advanced to the aorta, arterial blood systolic and diastolic pressure was detected. […] Similarly, right atrial pressure was measured by moving the catheter from the right ventricle into atrium. […]

Test [2] relates to TAC-PH mice. Nature of the test: Transverse aortic constriction (TAC) induced PH mouse model, C57BL/6 (Example 9). It is filed as in vivo. The note with it: 10 mg/kg s.c. twice weekly for 4 weeks from day 14 after TAC, day 42, relative to TAC-PH/PBS. From the text: The effects of an ActRIIA-mFc fusion polypeptide (SEQ ID NO: 56) was examined in a mouse model of left ventricular systolic dysfunction (also referred to as HErEF) of pulmonary hypertension (PH). In this model, C57BL/6 mice underwent transverse aortic constriction (TAC) to induce left heart failure, and right heart and pulmonary remodeling. See, e.g., Xiong P Y, et al. Hypertension 2018, 71(1):34-55 and Chen Y, et al. Hypertension 2012, 59(6):1170-1178.
Twenty-six C57/B6 male mice (10 wks old) underwent TAC surgery and ten age-matched animals underwent a mock surgical procedure (Sham) at day 0. Two weeks after the surgery, TAC-PH mice were randomized into two groups. i) fourteen mice were injected subcutaneously with vehicle control (phosphate buffered saline (PBS)), twice weekly for 4 weeks starting from day 14 after surgery, “TAC-PH/PBS”: and a ii) twelve mice were injected subcutaneously with ActRIIA-mFc at a dose of 10 mg/kg twice weekly for 4 weeks starting from day 14 after TAC surgery, “TAC-PH/ActRII-mFc”. At the end of the study, echocardiography and pressure-volume catheter were performed to measure left and right ventricular remodeling and functional changes before animals were euthanized for heart and lung collection. Hearts and lungs of each mouse were weighed, fixed in 10% formalin, embedded in paraffin, and sectioned for Masson's trichrome stain to assess fibrosis.
Prior to euthanasia, in vivo cardiac function was assessed by transthoracic echocardiography (Acuson P300, 18 MHz transducer; Siemens) in conscious mice. From left ventricle (LV) short axis view, M-mode echocardiogram was acquired to measure left ventricle end diastolic diameter (LVEDD), and left ventricle end systolic diameter (LVESD). Fractional shortening (FS) was calculated from the end-diastolic diameter (EDD) and end-systolic diameter (ESD) using the following equation: FS=100%×[(EDD−ESD)/EDD]. Early diastolic filling peak velocity (E), early diastolic mitral annular velocity (E′), and isovolumetric relaxation time (IVRT) were measured from the medial or septal wall at the mitral valve level from tissue Doppler image. LV diastolic function was assessed by measuring the E/E′ ratio and IVRT. Three to five beats were averaged for each mouse measurement. Tricuspid annular plane systolic excursion (TAPSE), a parameter of global right ventricular function, was also measured.
On day 42, mice were anesthetized by an intraperitoneal injection of ketamine/xylazine (100/5 mg/kg) to evaluate left and right ventricular function by Millar pressure-volume conductance catheter. The respiration was supported by a small animal ventilator. Thoracotomy was made through 4-5 intercostal space, and the heart was exposed. A pressure-volume catheter (1.0-Fr, PVR-1035, Millar Instruments, Houston, TX, USA) was inserted into the left ventricle and right ventricle from the apex. Ventricular pressure and volume were calculated with LabChart 7 software. Stroke work, ejection fraction, maximum and minimum rate of pressure development (+dp/dtm, −dp/dtm) were derived.

For “ActRIIA-mFc: ActRIIA-mFc fusion polypeptide (SEQ ID NO: 56); extracellular domain fused to murine IgG2a Fc domain with a linker”, the PAAT result in test [1] (FIG. 56) is given as “significantly increased PAAT”. Besides, the “right ventricular systolic pressure (RVSP)” value in test [1] (FIG. 57) is reported as “significantly reduced right ventricular systolic pressure”. In addition, the RVWT entry in test [1] (FIG. 58) is “significantly reduced elevated RVWT”. The TAPSE result in test [1] (FIG. 59) is “increased TAPSE”. In addition, in test [1] (FIG. 60), the “Fulton index (RV/(LV+S))” value is “decreased Fulton index”. Besides, the “cardiac hypertrophy, heart weight/body weight (HW/BW)” value in test [2] (FIG. 15) is given as “significantly reduced cardiac hypertrophy”. Moreover, the “fractional shortening (FS)” value in test [2] (FIG. 16) is given as “elevated FS”. The LV ejection fraction result in test [2] (FIG. 17) was “restored LV ejection fraction”. In test [2] (FIG. 18), the “E/E′ ratio” value is “reduced E/E′ ratio”. Also, in test [2] (FIG. 19), the “isovolumetric relaxation time (IVRT)” value is reported as “reduced IVRT”. Besides, the “right ventricle free wall thickness (RVFWT)” value in test [2] (FIG. 20) is “significantly reduced elevated RVFWT”. Moreover, in test [2] (FIG. 21), the “tricuspid annular plane systolic excursion (TAPSE)” value is “increased reduced TAPSE”. For the same substance, the RV stroke work entry in test [2] (FIG. 22) was “reduced elevated RV stroke work”. In addition, in test [2] (FIG. 23), the “minimum rate of pressure development in RV (−dp/dTmin)” value is recorded as “decreased increased RV−dp/dTmin”. In addition, the “lung weight (LW/TL)” value in test [2] (FIG. 24) is “decreased lung weight”. In addition, the lung fibrosis result in test [2] (FIG. 25) was “significantly reduced lung fibrosis”.
